Experimental data as given in the NIST ThermoML archive (doi:10.1021/je050358g).

Settings: Liquid, vibrating tube

CC(=O)[O-].CCCCCCCCCCCCCC[P+](CCCCCC)(CCCCCC)CCCCCC [trihexyl(tetradecyl)phosphonium acetate]
mass density [kg/m3]
Settings | 298.15 K | 303.15 K | 307.97 K | 313.07 K | 317.74 K | 323.96 K | 329.14 K | 334.11 K
210 kPa | 890.6 | 887.54 | 884.7 | 881.57 | 878.87 | 875.25 | 872.15 | 869.21
540 kPa | 890.77 | 887.71 | 884.86 | 881.77 | 879.06 | 875.43 | 872.35 | 869.41
1000 kPa | 891.01 | 887.96 | 885.13 | 882.02 | 879.32 | 875.7 | 872.61 | 869.67
3000 kPa | 892.04 | 889.03 | 886.22 | 883.14 | 880.46 | 876.87 | 873.78 | 870.81
5010 kPa | 893.09 | 890.08 | 887.29 | 884.26 | 881.6 | 878 | 874.92 | 871.98
7500 kPa | 894.35 | 891.38 | 888.6 | 885.61 | 882.99 | 879.4 | 876.33 | 873.42
9990 kPa | 895.56 | 892.64 | 889.9 | 886.96 | 884.32 | 880.77 | 877.71 | 874.78
15010 kPa | 897.96 | 895.15 | 892.45 | 889.57 | 886.95 | 883.42 | 880.41 | 877.5
19990 kPa | 900.29 | 897.52 | 894.88 | 892.06 | 889.47 | 885.99 | 883 | 880.11
25010 kPa | 902.57 | 899.86 | 897.23 | 894.49 | 891.91 | 888.48 | 885.53 | 882.67
29990 kPa | 904.74 | 902.08 | 899.51 | 896.77 | 894.26 | 890.86 | 887.95 | 885.12
35010 kPa | 906.9 | 904.28 | 901.72 | 899.05 | 896.54 | 893.19 | 890.32 | 887.57
40020 kPa | 908.99 | 906.41 | 903.88 | 901.21 | 898.76 | 895.47 | 892.64 | 889.93
45010 kPa | 911.02 | 908.45 | 905.95 | 903.32 | 900.88 | 897.65 | 894.88 | 892.22
49990 kPa | 912.98 | 910.44 | 907.95 | 905.38 | 902.96 | 899.78 | 897.06 | 894.45
55000 kPa | 914.91 | 912.4 | 909.92 | 907.36 | 904.98 | 901.85 | 899.19 | 896.66
59990 kPa | 916.81 | 914.31 | 911.84 | 909.27 | 906.93 | 903.86 | 901.27 | 898.81
65010 kPa | 918.66 | 916.16 | 913.69 | 911.16 | 908.84 | 905.84 | 903.3 | 900.91
